Data published in patent US5744468A (Lin; Tong-Ho, priority 1996, dated 1998).
Like-named read-outs stand apart in the source and are kept apart here.

Experiments:
[1] = test system: intraocular pressure (IOP) in rabbits; conditions: 50 μl
Method: New Zealand albino rabbits of either sex were used in the study. A 20% hypertonic saline solution was infused at the speed of 1 ml per min for 10 minutes through the marginal ear vein with an infusion pump.
Then the IOP of both eyes were measured with a Tono-Pen XL Tonometer (Mentor, Norwell, Mass.) at 30 minute and 10 minute intervals before the experiment. At the time of commencement, as well as at 10, 20, 40, 60, and 80 rain intervals measurements were taken, Then measurements were repeated at every 30 minute intervals.

[2] = test system: dopamine D3 receptor mRNA; conditions: daily doses clozapine 30 mg/kg, sulpiride 100 mg/kg; male Wistar rats; long term; cited from earlier work

CCN1CCCC1CNC(=O)c1cc(S(N)(=O)=O)ccc1OC (stereo not drawn) [Sulpiride]
effect on IOP recovery ([1]; 0.5% drop solution, instilled in eye): didn't show a significant ability in decreasing lOP
effect on IOP recovery ([1]; 20% drop solution, listed as sulpiride): able to decrease the intraocular pressure (IOP)
mRNA levels in the dopamine D3 receptor [2]: large increase
